The subject of one data set is Dehalococcoides. Kind of data set: qRT-PCR of Dehalococcoides 16S rRNA genes in DehaloR̂2 cultures. It counts as cell-based. The following applies: for effect on growth / gene copy number of Dehalococcoides in DehaloR̂2 cultures: 1.5 μM TCC or 35 μM TCS. On the procedure:
Quantitative real-time PCR (qRT-PCR) was performed for enumeration of general 16S rRNA genes and Dehalococcoides 16S rRNA genes in culture DehaloR̂2 and Bio-Dechlor INOCULUM. The primers used for general 16S rRNA genes were Bac1055F (5′-ATG GYT GTC GTC ACCT-3′) and Bac1392R (5′-ACG GGC GGT GTG TAC-3′) (Ritalahti et al., 2006), and the probe was Bac16sTaq (FAM-CAA CGA GCG CAA CCC/3-BHQ-1/). The final volume of PCR reactions was 10 μL, and the final concentration of each chemical in a single reaction tube was: 1× RealMasterMix (Fisher Scientific, Pittsburgh, Pa.), 300 nM Probe, 300 nM each Primer, and 130 nM DNA samples. The PCR conditions were as follows: 2 min at 95° C. followed by 40 cycles of 10 s at 95° C., 20 s at 56° C. and 20 s at 68° C. The primers used for Dehalococcoides 16S rRNA genes were Dhc1200F (5′-CTGGAGCTAATCCCCAAAGCT-3′) and Dhc1271R (5′-CAA CTT CAT GCA GGC GGG-3′), and the probe was Dhc1240Pr (FAM-TCCTCAGTTCGGATTGCAGGC TGAA/3-BHQ-1) (He et al., 2003b). The final volume of PCR reactions was 10 μL, and the final concentration of each chemical in a single reaction tube was: 1× RealMasterMix (Fisher Scientific, Pittsburgh, Pa.), 200 nM Probe, 700 nM each Primer, and 130 nM DNA samples. The PCR conditions were as follows: 2 min at 95° C. followed by 40 cycles of 15 s at 95° C., 20 s at 58° C. and 20 s at 68° C.
Quantitative Real time PCR (qRT-PCR) was carried out in a spectrofluorimetric thermal cycler (Master cycler, epgradient S, Eppendorf). Calibration curves were performed in triplicate and a linear range of 6 orders of magnitude was obtained. Plasmids containing Dehalococcoides strain BAV1 16S rRNA genes were used as standards to construct general 16S rRNA genes and Dehalococcoides 16S rRNA genes calibration curves. The slopes of the calibration curves for general 16S rRNA genes and Dehalococcoides 16S rRNA genes were −3.46 and −3.94, and the Y intercepts were 38 and 44.2, respectively.
DNA Extraction and Quantitative Real-Time PCR. The BDI cultures and DehaloR^2 cultures were shaken vigorously first and then 10 ml of the mixed liquid was removed with a sterile syringe and dispensed into 10 1.5 ml micro centrifuge tubes. These micro centrifuge tubes were then centrifuged at 13,000 rpm for 15 min in order to make a pellet, and the pellet was used for DNA extraction. Qiagen DNeasy Blood & Tissue Kit with modifications to enhance lysis was used for DNA isolation from cultures. DNA samples were stored at −20° C.
Quantitative real-time PCR (qRT-PCR) was performed for enumeration of general 16S rRNA genes and Dehalococcoides 16S rRNA genes in BDI culture without TCC&TCS, BDI culture with 1.5 μM TCC, BDI culture with 35 μM TCS, D DehaloR̂2 culture without TCC&TCS, DehaloR^2 culture with 1.5 μM TCC and DehaloR̂2^2 culture with 35 μM TCS.
The primers used for Dehalococcoides 16S rRNA genes were Dhc1200F (5′-[…]-3′) and Dhc1271R (5′-CAACTTCATGCAGGCGGG-3′), and the probe was Dhc1240Pr (FAM-[…]/3-BHQ-1) (He et al., 2003b). The final volume of PCR reactions was 10 μL, and the final concentration of each chemical in a single reaction tube was: 1× RealMasterMix (Fisher Scientific, Pittsburgh, Pa.), 200 nM Probe, 700 nM each Primer, and 130 nM DNA samples. The PCR conditions were as follows: 2 min at 95° C. followed by 40 cycles of 15 s at 95° C., 20 s at 58° C. and 20 s at 68° C.
The qRT-PCR was carried out in a spectrofluorimetric thermal cycler (Master cycler, epgradient S, Eppendorf). […]

For data set [1] the following is noted: cited from earlier work.
For data set [2] the following is noted: at 25° C., pH 7; cited from earlier work.
For data set [3] the following is noted: anaerobic conditions, within 70 days; cited from earlier work.
[4] abbreviates: at 25° C., table values calculated using PBT Profiler and ECOSAR.

Entries after “also recorded” stand apart in the source; their conditions may differ. Where two headings read alike, the source gives them in different places. Some results are limits rather than exact numbers.

`O=C(Nc1ccc(Cl)cc1)Nc1ccc(Cl)c(Cl)c1` [TCC, 3-(4-chlorophenyl)-1-(3,4-dichlorphenyl) urea]: the “effect on growth / gene copy number of Dehalococcoides in DehaloR̂2 cultures” value with Dehalococcoides is given as “did not exert any inhibitory effect on the growth of Dehalococcoides”. Also, in the data set on Dehalococcoides (DehaloR̂2 with 1.5 μM TCC), the “Dehalococcoides 16S rRNA gene copies, day 22” value is 3.9×10^7 gene copies/ml; the “Dehalococcoides 16S rRNA gene copies, day 22 relative to initial” value worked out at 11.6 times; the “Dehalococcoides 16S rRNA gene copies, initial” value is 3.3×10^6 gene copies/ml. In data set [1] (at 20° C.), the Water solubility was 0.05 µg/mL. Also, in data set [1] (setting [4]), the Water solubility is 0.65 µg/mL. Also, in data set [1] (at 25° C., table values calculated using PBT Profiler and ECOSAR, listed as Triclocarban), the Water solubility was 0.65 to 1.55 µg/mL. Also, the “Partition Coefficient” value in data set [2] was 4.9 Log Pow. Moreover, the biodegradation in soil result in data set [3] was “little biodegradation”.

`Oc1cc(Cl)ccc1Oc1ccc(Cl)cc1Cl` [TCS, 5-chloro-2-[2,4-dichloro-phenoxy]-phenol]: the “effect on growth / gene copy number of Dehalococcoides in DehaloR̂2 cultures” value with Dehalococcoides was “almost remained constant; also recorded: significantly inhibited the growth of Dehalococcoides”. Also, the Water solubility is less than 1 µg/mL in data set [1] (at 20° C.); 4.6 µg/mL in data set [1] (setting [4]); 1.97 to 4.62 µg/mL in data set [1] (at 25° C., table values calculated using PBT Profiler and ECOSAR, listed as Triclosan). Also, the “Partition Coefficient” value in data set [2] is reported as 4.8 Log Pow. In addition, in data set [3], the biodegradation in soil result was “little biodegradation”.

Values taken from patent US20120178147A1, “MICROBIAL CULTURES AND METHODS FOR ANAEROBIC BIOREMEDIATION” (priority 2009, published 2012).
